The values that follow come from paper PMC11830721 (Frontiers in Pharmacology, 2025).

The target in assay [1] is T1, FLT3-ITD (Homo sapiens, UniProt P36888, ITD).
T1 sequence (P36888 27-993): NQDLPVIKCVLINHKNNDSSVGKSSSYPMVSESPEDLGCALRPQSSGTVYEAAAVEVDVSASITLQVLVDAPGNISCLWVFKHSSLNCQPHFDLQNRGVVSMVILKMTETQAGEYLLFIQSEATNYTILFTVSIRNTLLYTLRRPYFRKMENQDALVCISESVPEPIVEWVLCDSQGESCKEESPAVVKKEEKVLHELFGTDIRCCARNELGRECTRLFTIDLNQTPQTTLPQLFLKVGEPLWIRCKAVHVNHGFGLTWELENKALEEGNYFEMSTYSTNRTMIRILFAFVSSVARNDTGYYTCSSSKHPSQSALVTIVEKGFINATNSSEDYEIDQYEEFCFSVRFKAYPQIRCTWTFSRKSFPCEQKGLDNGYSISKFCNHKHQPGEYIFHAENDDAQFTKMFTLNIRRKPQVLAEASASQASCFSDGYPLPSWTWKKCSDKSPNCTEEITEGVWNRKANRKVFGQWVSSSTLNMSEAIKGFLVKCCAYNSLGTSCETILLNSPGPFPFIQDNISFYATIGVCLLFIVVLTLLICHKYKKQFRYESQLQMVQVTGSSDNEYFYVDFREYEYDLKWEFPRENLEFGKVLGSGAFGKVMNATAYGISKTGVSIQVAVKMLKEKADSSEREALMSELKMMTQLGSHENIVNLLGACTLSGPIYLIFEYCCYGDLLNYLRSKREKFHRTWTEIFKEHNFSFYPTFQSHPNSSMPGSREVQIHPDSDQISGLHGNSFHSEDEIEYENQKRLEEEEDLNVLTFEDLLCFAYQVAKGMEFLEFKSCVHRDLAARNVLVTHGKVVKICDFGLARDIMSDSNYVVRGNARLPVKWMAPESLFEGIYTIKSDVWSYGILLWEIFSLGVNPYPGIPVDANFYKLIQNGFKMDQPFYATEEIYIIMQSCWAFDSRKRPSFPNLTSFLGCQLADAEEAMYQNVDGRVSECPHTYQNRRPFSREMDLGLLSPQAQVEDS
The experiment in a line: Microscale thermophoresis (MST) binding affinity. The conditions noted are these: 50 mM Tris, 230 mM NaCl, pH 7.0, labeled protein 50 nM. How it is done:
The protein was labeled with a fluorescence tag utilizing a Lys Labeling Kit (NanoTemper), with a final concentration of 50 nM being achieved. Adhering to the manufacturer’s guidelines, the compounds were titrated from an initial concentration of 12.5 μM with a 1:1 dilution ratio. Next, each sample was centrifuged at 15,000 rpm for 5 min, followed by loading into standard glass capillaries for MST analysis.
On the technique in general: Microscale thermophoresis detects binding through changes in fluorescence in a small temperature gradient.

Assay [2] addresses T1, FLT3-ITD. The experiment in a line: ADP-Glo kinase-inhibition assay. The class given is biochemical. The conditions noted are these: ADP-Glo; ATP 100 μM; FLT3-ITD 10 ng/μL. The protocol:
Subsequently, the kinase detection reagent was added and incubated for an additional 15 min. Finally, the mixture was incubated for 1 h, and relative luminescence units (RLU) were measured.
Moreover, we extended the kinase selectivity profiling of FLIN-4 to evaluate its inhibitory activity against 60 non-target kinases.

Another assay has as its system MV4-11 cells. The experiment in a line: MTT anti-proliferation assay, MV4-11. The conditions noted are these: Homo sapiens, 72-h treatment. In kind it is cell-based. How it is done: In addition, the normal hematopoietic cell line was COLO 829BL from ATCC. The cells were maintained in RPMI-1640 medium supplemented with 10% FBS, and 1% penicillin and streptomycin. The cells were cultured in an incubator at 37°C with 5% CO2. […] The high-performance liquid chromatography (HPLC) spectra data for each compound are provided in the (Supplementary Figures S1–S6).
The effects of the test compounds on MV4-11, NB4, and COLO 829BL cell lines were quantitatively evaluated according to the methods previously reported ([Zhou et al., 2022]).
In general terms: Formazan colour is commonly taken as a measure of viable cells.

For orientation: Kd means a measure of binding affinity in units of concentration. The low end stands for tighter binding, the high end for weaker binding. Usually IC50 stands for the concentration that inhibits the measured activity by half. Lower therefore signals inhibition by little substance. In the case of `CCc1nc(C(N)=O)c(Nc2ccc(N3CCC(NC4CCCC4)CC3)c(OC)c2)nc1NC1CCOC(C(O)CO)C1` (stereo not drawn) [FLIN-2], binding on FLT3-ITD [1] was characterised by a dissociation constant (Kd) of 3.62 ± 0.41 nM. Besides, the IC50 against FLT3-ITD [2] was 4.98 ± 0.35 nM; with MV4-11 cells, 5.54 ± 0.41 nM.
At FLT3-ITD [1], `CCCNC1CCN(c2ccc(Nc3nc(NC4CCOC(C(O)CO)C4)c(CC)nc3C(N)=O)cc2OC)CC1` (stereo not drawn) [FLIN-5] showed an equilibrium dissociation constant (Kd) of 12.5 ± 1.05 nM. Further, the IC50 on FLT3-ITD [2] was 14.5 ± 0.98 nM; with MV4-11 cells, 17.7 ± 1.03 nM.
Molecule `CCc1nc(C(N)=O)c(Nc2ccc(N3CCC(NC(CC)CC)CC3)c(OC)c2)nc1NC1CCOC(C(O)CO)C1` (stereo not drawn) [FLIN-6] had a Kd at FLT3-ITD [1] of 5.26 ± 0.42 nM. For the same molecule, the IC50 against FLT3-ITD [2] turned out to be 6.39 ± 0.47 nM; in the assay with MV4-11 cells it was 8.28 ± 0.54 nM.
The corresponding values for `CCc1nc(C(N)=O)c(Nc2ccc(N3CCC(NC4CC4)CC3)c(OC)c2)nc1NC1CCOC(C(O)CO)C1` (stereo not drawn) [FLIN-1] are 8.74 ± 0.52 nM, 10.2 ± 0.81 nM and 12.2 ± 0.94 nM.
As for `CCc1nc(C(N)=O)c(Nc2ccc(N3CCC(NC4CCCCC4)CC3)c(OC)c2)nc1NC1CCOC(C(O)CO)C1` (stereo not drawn) [FLIN-3], binding on FLT3-ITD [1] was put at a Kd of 2.19 ± 0.33 nM. The IC50 was determined as 2.85 ± 0.22 nM against FLT3-ITD [2] and 3.03 ± 0.27 nM in the assay on MV4-11 cells.
